The subject of experiment [1] is vertebral blood flow. In words: Effect of vertebral blood flow (anesthetized dogs). In kind it is in vivo, mongrel dogs. The settings on record: Canis lupus familiaris; dose required to obtain 100% of the flow increase by intraartery 3 μg/kg nifedipine. As for the experimental part:
Adult mongrel dogs were anesthetized with sodium pentobarbital (30 mg/kg. i.v.) and the blood flow of the left vertebral artery was measured.

Experiment [2] addresses calcium/calmodulin dependent phosphodiesterase. Kind of experiment: Effect on calcium/calmodulin dependent phosphodiesterase. In kind it is biochemical. The following applies: [3H]-cAMP, pH 8.0, 37° C., 20 minutes; read-out: Inhibitory action on calcium/calmodulin dependent phosphodiesterase IC50. The protocol: The experiment was carried out according to the method of Thompson et al. described in Advances in Cyclic Nucleotide Research, Vol. 10, p. 69 (1979). Briefly, the solution of which final volume was 200μl was prepared by mixing 40 μl of 200 mM Tris-HCl buffer solution (pH 8.0), containing 25 mM magnesium chloride and 0.5 mM ethyleneglycol-bis(β-aminoethylether)-N,N '-tetra acetic acid (EGTA), 20 μof 10μM [^3 H]-cAMP (250 nCi), test compound and a solution of calcium/calmodulin dependent phosphodiesterase (PDE) enzyme. The test compound was dissolved in dimethyl sulfoxide to give 1% of final concentration. The incubation was performed at 37° C. for 20 minutes and then stopped by heating for 1 minutes in a boiling water bath. The resulting 5'-AMP was converted into adenosine by adding 50 μl of snake venom (1 mg/ml) and incubating at 30° C. for 10 minutes. Then, to the solution was added 500 μl of AGI-X8 (methanol:resin=3:2) and the mixture was allowed to stand under ice-cooling for 15 minutes with occasional shaking to adsorb the unreacted cAMP. After centrifuging, the radioactivity of the supernatant was measured by a liquid scintillation counter.
The action of the test compound on PDE activity was studied by calculating the inhibition percentage in the absence of calcium/calmodulin from the following formula, and represented as IC50 value. [formula] a: PDE activity in the presence of test compound and in the absence of calmodulin
b: PDE activity in the absence of test compound and calmoduline

Experiment [3] has as its system coronary artery blood flow. In words: Effect on coronary flow (coronary artery blood flow in anesthetized dogs). The settings on record: relative to flow increase at 3 μg nifedipine. In kind it is in vivo, mongrel dogs. As for the experimental part: Adult mongrel dogs were anesthetized with sodium pentobarbital (30 mg/kg, i.v.). According to the method of Yago et al described in Folia Pharmacologica Japonica, vol. 57, p. 380 (1961), the left coronary artery was perfused and its blood flow was measured. Test compound was injected into the coronary artery at a volume of 10-30 μl. To determine the effect of the test compound on coronary artery blood flow, an increase percentage of blood flow at each dosage was calculated based on the increase of the blood flow at a dosage of 3 μg of nifedipine.

For experiment [4], the system named is PAF-induced lethal shock. Kind of experiment: Effect of PAF-induced lethal shock in mice. In kind it is in vivo, male ICR mice. The following applies: 1 hour before PAF 80 μg/kg i.v., 24 hours. The protocol: The experiment was carried out according to the method of Young et al. described in Prostaglandins, vol. 30, p. […] Groups of 9 to 15 male ICR mice (Charles River) weighing 25-30 g were used. 80 μg/kg of PAF (Serdary Research Labo.) solution was intravenously administered in a lateral tail vein 1 hour after the oral administration of test compound (0.1 ml/10 g). […] Results were given as number of survivors/number of employed animals and survival rates (%) in Table 4.

Experiment [5] has as its target T1, calmodulin (bovine encephalon) (Bos taurus, UniProt P62157).
T1 construct: calmodulin (bovine encephalon); from tissue; host or cells: bovine encephalon (brain)
Kind of experiment: Calmodulin inhibitory action (NPN fluorescence probe method). In kind it is biochemical. As for the experimental part: Calmodulin inhibitory action was measured according to the modified method of Epstein et al. described in Biochemical and Biophysical Research Communications, Vol. 105, p. 1142 (1982). Briefly, to 25 mM Tris-HCl buffer solution (pH 7.0) were added as a final concentration 1 mM calcium chloride, 5 μM N-phenyl-1-naphthylamine (NPN), 1000 units of calmodulin (bovine encephalon) and each of test compound to give 3 ml of final solution volume. The solution was allowed to stand at room temperature for 1 hour and the fluorescence intensity was measured by a fluorescene photometer (ex. 350 nm, em. 440 nm). A blank was prepared by adding water instead of calmodulin. Each of test compound was dissolved in dimethyl sulfoxide or 2.5% dimethyl sulfoxide solution and the final concentration of dimethyl sulfoxide was adjusted to 0.25%.

Where [6] appears, read: dosage 30 μg into coronary artery.
[7] abbreviates: dosage 100 μg into coronary artery.
The mark [8] stands for this setting: dosage 300 μg into coronary artery.

SMILES strings stand for the structures.

Consider `CCCCCCc1cc2c(s1)-n1c(C)nnc1CN=C2c1cc(C)ccc1C` [Example 65, 2-hexyl-4-(2,5-dimethylphenyl)-9-methyl-6H-thieno[3,2-f][1,2,4]triazolo[4,3-a][1,4]diazepine], for which, in experiment [1], the ED100 came to 0.099 mg/kg. For the same compound, in experiment [2], the IC50 amounted to 20 µM.

With `CCCCCCc1cc2c(s1)-n1c(C)nnc1CN=C2c1cc(OC)c(OC)c(OC)c1` [Example 67, 2-hexyl-4-(3,4,5-trimethoxyphenyl)-9-methyl-6H-thieno[3,2-f][1,2,4]triazolo[4,3-a][1,4]diazepine], the “Effect on coronary blood flow” value in experiment [3] (setting [6]) came out at 43%; in experiment [3] (setting [7]) it was 86%; in experiment [3] (setting [8]), 114%. Moreover, in experiment [1], the ED100 was determined as 0.078 mg/kg. In addition, the IC50 in experiment [2] turned out to be 7 µM.

For `CCCCCCc1cc2c(s1)-n1c(C)nnc1C(C)N=C2c1ccccc1C` (stereo not shown) [Example 68, 2-hexyl-4-(2-methylphenyl)-6,9-dimethyl 6H-thieno[3,2-f][1,2,4]triazolo[4,3-a][1,4]diazepine], the “Effect on coronary blood flow” value in experiment [3] (setting [6]) was 33%; in experiment [3] (setting [7]), 63%; in experiment [3] (setting [8]), 100%. Further, the “Number of Survivors/Number of Animals” value is reported as 5/6 in experiment [4] (0.1 mg/kg p.o.), 6/7 in experiment [4] (0.3 mg/kg p.o.) and 6/7 in experiment [4] (1 mg/kg p.o.). In addition, the results for the Survival rate in experiment [4] (0.1 mg/kg p.o.), in experiment [4] (0.3 mg/kg p.o.) and in experiment [4] (1 mg/kg p.o.) were 83.3%, 85.7% and 85.7%, respectively. The IC50 in experiment [5] was 1.1 µM.

With `CCCCCCc1cc2c(s1)-n1c(C)nnc1C(C)N=C2c1ccccc1Cl` (stereo not shown) [Example 74, 4-(2-chlorophenyl)-2-hexyl-6,9-dimethyl-6H-thieno[3,2-f][1,2,4]triazolo[4,3-a][1,4]diazepine], the “Effect on coronary blood flow” value in experiment [3] (setting [6]) came out at 16%; in experiment [3] (setting [7]) it was 57%; in experiment [3] (setting [8]), 86%. The “Number of Survivors/Number of Animals” value is listed as 5/6 in experiment [4] (0.1 mg/kg p.o.) and 7/7 in experiment [4] (1 mg/kg p.o.). Besides, the Survival rate was 83.3% in experiment [4] (0.1 mg/kg p.o.) and 100% in experiment [4] (1 mg/kg p.o.). Besides, in experiment [5], the IC50 was 1.2 µM.

The record behind these values is patent US4960770A, “2-alkyl thieno(triazolo)diazepine compounds and pharmaceutical uses thereof” (Yoshitomi Pharmaceutical Industries, Ltd., priority 1987, dated 1990).
